Measured values published in patent EP0454444A1, “Glutarimide derivatives and herbicides” (NISSAN CHEMICAL INDUSTRIES LTD., priority 1990, dated 1991).

Tests used:
Experiment in all cases: Herbicidal effect test by soil treatment
Format in all cases: in vivo
rice (Oryza sativa) = settings: crop plant, three weeks after spraying
From the text: (§1) In a plastic box of 15 cm length, 22 cm width and 6 cm depth, there was placed a sterilized dilvial soil, and seeds of barnyardgrass (Echinochloa crusgalli), large crabgrass (Digitaria adscendens), annual sedge (Cyperus microiria), black nightshade (Solanum nigrum L.), hairly galinosoga (Galinsoga ciliat), rorippa ssp. (Rorippa atrovirens), rice (Oryza sativa), corn (Zea mays), wheat (Triticum aestivum), soybean (Glysine max) and cotton (Gossypium herbaceum) were sown mixedly. After covering soil to about 1 cm over the seeds, herbicides were sprayed evenly on the soil surface to predetermined proportions of the active ingredient In spraying, the wettable powder, emulsifiable concentrate, dry flowable or flowable in the above formulation examples were diluted with water and sprayed over the entire surface by means of a small sprayer. Three weeks after spraying, the herbicidal effect on crop plants including rice, corn, wheat, soybean, cotton and various kinds of weeds were examined according to the judgement criteria shown below. Judgement criteria
(§2) The above growth control rates are determined by measuring the top fresh weights of the treated plants and those of the non-treated plants, and culculated from the following formula: [formula]

[1] = test system: annual sedge (Cyperus microiria); settings: three weeks after spraying
From the text: as §1, §2

[2] = test system: wheat (Triticum aestivum); settings: crop plant, three weeks after spraying
From the text: as §1, §2

[3] = test system: barnyardgrass (Echinochloa crusgalli); settings: three weeks after spraying
From the text: as §1, §2

[4] = test system: black nightshade (Solanum nigrum L.); settings: three weeks after spraying
From the text: as §1, §2

[5] = test system: cotton (Gossypium herbaceum); settings: crop plant, three weeks after spraying
From the text: as §1, §2

[6] = test system: hairly galinosoga (Galinsoga ciliat); settings: three weeks after spraying
From the text: as §1, §2

corn (Zea mays) = settings: crop plant, three weeks after spraying
From the text: as §1, §2

soybean (Glysine max) = settings: crop plant, three weeks after spraying
From the text: as §1, §2

[7] = test system: large crabgrass (Digitaria adscendens); settings: three weeks after spraying
From the text: as §1, §2

[8] = test system: rorippa ssp. (Rorippa atrovirens); settings: three weeks after spraying
From the text: as §1, §2

## O=C1COc2cc(F)c(N3C(=O)CC(C(F)(F)F)CC3=O)cc2N1Cc1ccccc1 [1-27]
Rice (Oryza sativa); application amount 0.4 g/a
  herbicidal effect, R (Oryza sativa): 2 (Growth control rates of 20 to 40%)
Rice (Oryza sativa); application amount 0.8 g/a
  herbicidal effect, R (Oryza sativa): 3 (Growth control rates of 40 to 70%)
Rice (Oryza sativa); application amount 1.6 g/a
  herbicidal effect, R (Oryza sativa): 4 (Growth control rates of 70 to 90%)
[1]; application amount 0.4 g/a
  herbicidal effect, K (Cyperus microiria): 5 (Growth control,rates of more than 90% (almost completely withered))
[1]; application amount 0.8 g/a
  herbicidal effect, K (Cyperus microiria): 5 (Growth control,rates of more than 90% (almost completely withered))
[1]; application amount 1.6 g/a
  herbicidal effect, K (Cyperus microiria): 5 (Growth control,rates of more than 90% (almost completely withered))
[2]; application amount 0.4 g/a
  herbicidal effect, W (Triticum vulgare): 2 (Growth control rates of 20 to 40%)
[2]; application amount 0.8 g/a
  herbicidal effect, W (Triticum vulgare): 4 (Growth control rates of 70 to 90%)
[2]; application amount 1.6 g/a
  herbicidal effect, W (Triticum vulgare): 5 (Growth control,rates of more than 90% (almost completely withered))
[3]; application amount 0.4 g/a
  herbicidal effect, N (Echinochloa crusgalli): 5 (Growth control,rates of more than 90% (almost completely withered))
[3]; application amount 0.8 g/a
  herbicidal effect, N (Echinochloa crusgalli): 5 (Growth control,rates of more than 90% (almost completely withered))
[3]; application amount 1.6 g/a
  herbicidal effect, N (Echinochloa crusgalli): 5 (Growth control,rates of more than 90% (almost completely withered))
[4]; application amount 0.4 g/a
  herbicidal effect, H (Solanum nigrum L.): 5 (Growth control,rates of more than 90% (almost completely withered))
[4]; application amount 0.8 g/a
  herbicidal effect, H (Solanum nigrum L.): 5 (Growth control,rates of more than 90% (almost completely withered))
[4]; application amount 1.6 g/a
  herbicidal effect, H (Solanum nigrum L.): 5 (Growth control,rates of more than 90% (almost completely withered))
[5]; application amount 0.4 g/a
  herbicidal effect, C (Gossypium herbaceum): 0 (Growth control rates of less than 5% (substantially no effect))
[5]; application amount 0.8 g/a
  herbicidal effect, C (Gossypium herbaceum): 1 (Growth control rates of 5 to 20%)
[5]; application amount 1.6 g/a
  herbicidal effect, C (Gossypium herbaceum): 2 (Growth control rates of 20 to 40%)
[6]; application amount 0.4 g/a
  herbicidal effect, D (Galinsoga ciliat): 5 (Growth control,rates of more than 90% (almost completely withered))
[6]; application amount 0.8 g/a
  herbicidal effect, D (Galinsoga ciliat): 5 (Growth control,rates of more than 90% (almost completely withered))
[6]; application amount 1.6 g/a
  herbicidal effect, D (Galinsoga ciliat): 5 (Growth control,rates of more than 90% (almost completely withered))
Corn (Zea mays); application amount 0.4 g/a
  herbicidal effect, T (Zea mays): 0 (Growth control rates of less than 5% (substantially no effect))
Corn (Zea mays); application amount 0.8 g/a
  herbicidal effect, T (Zea mays): 1 (Growth control rates of 5 to 20%)
Corn (Zea mays); application amount 1.6 g/a
  herbicidal effect, T (Zea mays): 4 (Growth control rates of 70 to 90%)
Soybean (Glysine max); application amount 0.4 g/a
  herbicidal effect, S (Glysine max): 0 (Growth control rates of less than 5% (substantially no effect))
Soybean (Glysine max); application amount 0.8 g/a
  herbicidal effect, S (Glysine max): 0 (Growth control rates of less than 5% (substantially no effect))
Soybean (Glysine max); application amount 1.6 g/a
  herbicidal effect, S (Glysine max): 1 (Growth control rates of 5 to 20%)
[7]; application amount 0.4 g/a
  herbicidal effect, M (Digitaria adscendens): 5 (Growth control,rates of more than 90% (almost completely withered))
[7]; application amount 0.8 g/a
  herbicidal effect, M (Digitaria adscendens): 5 (Growth control,rates of more than 90% (almost completely withered))
[7]; application amount 1.6 g/a
  herbicidal effect, M (Digitaria adscendens): 5 (Growth control,rates of more than 90% (almost completely withered))
[8]; application amount 0.4 g/a
  herbicidal effect, I (Rorippa indica): 5 (Growth control,rates of more than 90% (almost completely withered))
[8]; application amount 0.8 g/a
  herbicidal effect, I (Rorippa indica): 5 (Growth control,rates of more than 90% (almost completely withered))
[8]; application amount 1.6 g/a
  herbicidal effect, I (Rorippa indica): 5 (Growth control,rates of more than 90% (almost completely withered))

## O=C1COc2cc(F)c(N3C(=O)CC(C(F)(F)F)CC3=O)cc2N1 [1-25]
Rice (Oryza sativa); application amount 1.6 g/a
  herbicidal effect, R (Oryza sativa): 1 (Growth control rates of 5 to 20%)
[1]; application amount 1.6 g/a
  herbicidal effect, K (Cyperus microiria): 5 (Growth control,rates of more than 90% (almost completely withered))
[2]; application amount 1.6 g/a
  herbicidal effect, W (Triticum vulgare): 0 (Growth control rates of less than 5% (substantially no effect))
[3]; application amount 1.6 g/a
  herbicidal effect, N (Echinochloa crusgalli): 5 (Growth control,rates of more than 90% (almost completely withered))
[4]; application amount 1.6 g/a
  herbicidal effect, H (Solanum nigrum L.): 5 (Growth control,rates of more than 90% (almost completely withered))
[5]; application amount 1.6 g/a
  herbicidal effect, C (Gossypium herbaceum): 1 (Growth control rates of 5 to 20%)
[6]; application amount 1.6 g/a
  herbicidal effect, D (Galinsoga ciliat): 5 (Growth control,rates of more than 90% (almost completely withered))
Corn (Zea mays); application amount 1.6 g/a
  herbicidal effect, T (Zea mays): 0 (Growth control rates of less than 5% (substantially no effect))
Soybean (Glysine max); application amount 1.6 g/a
  herbicidal effect, S (Glysine max): 0 (Growth control rates of less than 5% (substantially no effect))
[7]; application amount 1.6 g/a
  herbicidal effect, M (Digitaria adscendens): 5 (Growth control,rates of more than 90% (almost completely withered))
[8]; application amount 1.6 g/a
  herbicidal effect, I (Rorippa indica): 5 (Growth control,rates of more than 90% (almost completely withered))

## CC(C)OC(=O)c1cc(N2C(=O)CC(C(C)C)C(C)C2=O)c(F)cc1Cl (centres unmarked) [1-5]
Rice (Oryza sativa); application amount 1.6 g/a
  herbicidal effect, R (Oryza sativa): 1 (Growth control rates of 5 to 20%)
[1]; application amount 1.6 g/a
  herbicidal effect, K (Cyperus microiria): 5 (Growth control,rates of more than 90% (almost completely withered))
[2]; application amount 1.6 g/a
  herbicidal effect, W (Triticum vulgare): 1 (Growth control rates of 5 to 20%)
[3]; application amount 1.6 g/a
  herbicidal effect, N (Echinochloa crusgalli): 4 (Growth control rates of 70 to 90%)
[4]; application amount 1.6 g/a
  herbicidal effect, H (Solanum nigrum L.): 5 (Growth control,rates of more than 90% (almost completely withered))
[5]; application amount 1.6 g/a
  herbicidal effect, C (Gossypium herbaceum): 0 (Growth control rates of less than 5% (substantially no effect))
[6]; application amount 1.6 g/a
  herbicidal effect, D (Galinsoga ciliat): 5 (Growth control,rates of more than 90% (almost completely withered))
Corn (Zea mays); application amount 1.6 g/a
  herbicidal effect, T (Zea mays): 0 (Growth control rates of less than 5% (substantially no effect))
Soybean (Glysine max); application amount 1.6 g/a
  herbicidal effect, S (Glysine max): 0 (Growth control rates of less than 5% (substantially no effect))
[7]; application amount 1.6 g/a
  herbicidal effect, M (Digitaria adscendens): 5 (Growth control,rates of more than 90% (almost completely withered))
[8]; application amount 1.6 g/a
  herbicidal effect, I (Rorippa indica): 5 (Growth control,rates of more than 90% (almost completely withered))

## CCS(=O)(=O)Nc1cc(N2C(=O)CC(C(F)(F)F)CC2=O)c(F)cc1Cl [1-15]
Rice (Oryza sativa); application amount 1.6 g/a
  herbicidal effect, R (Oryza sativa): 0 (Growth control rates of less than 5% (substantially no effect))
[1]; application amount 1.6 g/a
  herbicidal effect, K (Cyperus microiria): 5 (Growth control,rates of more than 90% (almost completely withered))
[2]; application amount 1.6 g/a
  herbicidal effect, W (Triticum vulgare): 0 (Growth control rates of less than 5% (substantially no effect))
[3]; application amount 1.6 g/a
  herbicidal effect, N (Echinochloa crusgalli): 3 (Growth control rates of 40 to 70%)
[4]; application amount 1.6 g/a
  herbicidal effect, H (Solanum nigrum L.): 5 (Growth control,rates of more than 90% (almost completely withered))
[5]; application amount 1.6 g/a
  herbicidal effect, C (Gossypium herbaceum): 0 (Growth control rates of less than 5% (substantially no effect))
[6]; application amount 1.6 g/a
  herbicidal effect, D (Galinsoga ciliat): 5 (Growth control,rates of more than 90% (almost completely withered))
Corn (Zea mays); application amount 1.6 g/a
  herbicidal effect, T (Zea mays): 0 (Growth control rates of less than 5% (substantially no effect))
Soybean (Glysine max); application amount 1.6 g/a
  herbicidal effect, S (Glysine max): 0 (Growth control rates of less than 5% (substantially no effect))
[7]; application amount 1.6 g/a
  herbicidal effect, M (Digitaria adscendens): 5 (Growth control,rates of more than 90% (almost completely withered))
[8]; application amount 1.6 g/a
  herbicidal effect, I (Rorippa indica): 5 (Growth control,rates of more than 90% (almost completely withered))

## O=C1CC(C(F)(F)F)CC(=O)N1Cc1ccc(Cl)cc1 [1-31]
Rice (Oryza sativa); application amount 6.3 g/a
  herbicidal effect, R (Oryza sativa): 0 (Growth control rates of less than 5% (substantially no effect))
[1]; application amount 6.3 g/a
  herbicidal effect, K (Cyperus microiria): 5 (Growth control,rates of more than 90% (almost completely withered))
[2]; application amount 6.3 g/a
  herbicidal effect, W (Triticum vulgare): 0 (Growth control rates of less than 5% (substantially no effect))
[3]; application amount 6.3 g/a
  herbicidal effect, N (Echinochloa crusgalli): 4 (Growth control rates of 70 to 90%)
[4]; application amount 6.3 g/a
  herbicidal effect, H (Solanum nigrum L.): 5 (Growth control,rates of more than 90% (almost completely withered))
[5]; application amount 6.3 g/a
  herbicidal effect, C (Gossypium herbaceum): 0 (Growth control rates of less than 5% (substantially no effect))
[6]; application amount 6.3 g/a
  herbicidal effect, D (Galinsoga ciliat): 5 (Growth control,rates of more than 90% (almost completely withered))
Corn (Zea mays); application amount 6.3 g/a
  herbicidal effect, T (Zea mays): 0 (Growth control rates of less than 5% (substantially no effect))
Soybean (Glysine max); application amount 6.3 g/a
  herbicidal effect, S (Glysine max): 0 (Growth control rates of less than 5% (substantially no effect))
[7]; application amount 6.3 g/a
  herbicidal effect, M (Digitaria adscendens): 4 (Growth control rates of 70 to 90%)
[8]; application amount 6.3 g/a
  herbicidal effect, I (Rorippa indica): 5 (Growth control,rates of more than 90% (almost completely withered))
